# Source: patent US10988456B2, “O-aminoheteroaryl alkynyl-containing compound, preparation method therefor, and use thereof” (SHANGHAI INSTITUTE OF MATERIA MEDICA, CHINESE ACADEMY OF …, priority 2017, dated 2021)
# Assays:
# [1] = Pharmacokinetic experiment in rat (IV and PO, plasma LC-MS/MS); details: SD rats
# Procedure: (§1) Ponatinib (AP24534) was administered intravenously (IV) and orally (PO) to SD rats. Blood samples were taken at different time points. LC-MS/MS was used to determine the concentration of compound in the plasma of rats after administration of the test compound, and the relevant pharmacokinetic parameters were calculated to examine oral bioavailability and pharmacokinetic properties of the compound in rats.
# as §1, with “Compound HuFGFR267” for “Ponatinib (AP24534)”, “intravenously” for “intravenously (IV)”, “orally” for “orally (PO)”
# [2] = biological target: T1, Ret (V804M) (Homo sapiens, UniProt P07949, V804M); assay: Inhibition of RET-related mutant enzyme activity (ELISA); assay type: biochemical; details: measured twice, Mean ± SD
# T1 construct: purchased
# Procedure: Enzyme reaction substrate Poly(Glu, Tyr)4:1 was diluted with potassium-free PBS (10 mM sodium phosphate buffer, 150 mM NaCl, pH 7.2-7.4) to 20 μg/mL. The enzyme label plate was coated with 125 μL/well. The reaction was conducted under 37° C. for 12-16 hours. After the liquid was removed from the wells, the plate was washed three times with 200 μL/well of T-PBS (PBS containing 0.1% Tween-20), each for 5 minutes. The enzyme plate was dried in 37° C. dryer for 1-2 hours.
# 50 μL ATP solution diluted with buffer (50 mM HEPES pH 7.4, 50 mM MgCl2, 0.5 mM MnCl2, 0.2 mM Na3VO4, 1 mM DTT) to a final concentration of 5 μM was added into each well. The compound was diluted with DMSO to a suitable concentration (1 μL/well) or the well contained the corresponding concentration of DMSO (negative control well) Then various kinase recombinant proteins diluted with 49 μL of reaction buffer was added to initiate the reaction. Each experiment required duplicate enzyme-free control well. The reaction was carried out for 1 hour on a 37° C. Shaker (100 rpm). […] The reaction was quenched with 2M H2SO4 (50 μL/well), and read at 490 nm using a tunable microplate reader SPECTRA MAX 190.
# The inhibition ratio of the sample was determined by the following formula: […]
# The IC50 values were obtained via four-parameter regression analysis using the software supplied with the microplate reader. […]
# T1 sequence (P07949 29-1114 V804M): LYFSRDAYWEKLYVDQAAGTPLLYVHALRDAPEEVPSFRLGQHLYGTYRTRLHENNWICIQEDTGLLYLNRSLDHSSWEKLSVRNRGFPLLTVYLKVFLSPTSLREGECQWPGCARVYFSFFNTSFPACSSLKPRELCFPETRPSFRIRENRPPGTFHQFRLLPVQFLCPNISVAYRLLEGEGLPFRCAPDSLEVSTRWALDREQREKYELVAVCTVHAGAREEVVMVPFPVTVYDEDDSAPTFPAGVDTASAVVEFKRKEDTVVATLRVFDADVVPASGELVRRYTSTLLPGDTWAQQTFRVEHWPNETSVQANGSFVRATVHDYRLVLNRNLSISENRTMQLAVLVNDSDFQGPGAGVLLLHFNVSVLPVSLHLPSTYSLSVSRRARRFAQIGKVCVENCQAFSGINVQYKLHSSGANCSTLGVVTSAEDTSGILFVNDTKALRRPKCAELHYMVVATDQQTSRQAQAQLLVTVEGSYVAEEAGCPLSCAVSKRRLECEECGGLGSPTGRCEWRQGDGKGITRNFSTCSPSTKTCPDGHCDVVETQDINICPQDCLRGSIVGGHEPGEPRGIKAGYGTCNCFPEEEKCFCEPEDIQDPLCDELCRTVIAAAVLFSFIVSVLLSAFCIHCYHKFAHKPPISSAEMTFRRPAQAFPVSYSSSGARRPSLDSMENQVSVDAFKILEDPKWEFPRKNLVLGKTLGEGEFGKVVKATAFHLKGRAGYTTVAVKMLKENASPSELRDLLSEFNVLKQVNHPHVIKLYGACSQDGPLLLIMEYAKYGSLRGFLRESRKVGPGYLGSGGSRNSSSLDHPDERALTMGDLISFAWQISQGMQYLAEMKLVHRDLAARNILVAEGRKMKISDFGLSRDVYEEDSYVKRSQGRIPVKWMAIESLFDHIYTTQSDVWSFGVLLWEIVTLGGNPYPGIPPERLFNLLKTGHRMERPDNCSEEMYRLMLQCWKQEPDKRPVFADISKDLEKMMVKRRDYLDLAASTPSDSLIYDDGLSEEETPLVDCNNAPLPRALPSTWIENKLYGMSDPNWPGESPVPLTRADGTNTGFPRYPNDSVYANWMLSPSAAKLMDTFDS
compound,measurement,setting,value
"CN1CCN(Cc2ccc(NC(=O)c3ccc(Cl)c(C#Cc4cccnc4N)c3)cc2C(F)(F)F)CC1 [Example 1, 3-(2-aminopyridine-3-ethynyl)-4-chloro-N-(4-((4-methylpiperazin-1-yl)methylene)-3-(trifluoromethyl)phenyl)benzamide]",AUC0-t,[1]; IV (2 mg/kg),2720 ng·h/mL
same,CLplasma,[1]; IV (2 mg/kg),11.9 mL/min/kg
same,T1/2,[1]; IV (2 mg/kg),6.00 h
same,Vdss,[1]; IV (2 mg/kg),4.88 L/kg
same,AUC0-t,[1]; PO (10 mg/kg),4961 ng·h/mL
same,Cmax,[1]; PO (10 mg/kg),346 ng/mL
same,T1/2,[1]; PO (10 mg/kg),10.5 h
same,Tmax,[1]; PO (10 mg/kg),5.33 h
same,F,[1]; PO (10 mg/kg) vs IV (2 mg/kg),36.5%
same,IC50,[2],8.4 ± 1.7 nM
